The results in this text go back to patent publication US20180099931A1 (AbbVie S.à.r.l., priority 2016, published 2018).

Where two headings read alike, the source gives them in different places. Some results are limits rather than exact numbers.

The test addresses T1, F508delCFTR (Homo sapiens, UniProt P13569, DEL508-508).
T1 construct: expressed in transfected cells; host or cells: CFBE41o- human lung-derived epithelial cells (CFBE4lo-F508delCFTR-HRP), doxycycline-inducible
Put plainly: Cell Surface Expression-Horse Radish Peroxidase (CSE-HRP) Assay.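 On Maximum % activity (with co-corrector): co-corrector and positive control are both the same reference corrector at 2 µM.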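 On Maximum % activity (without co-corrector): percent of the 2 µM on-plate positive control corrector response above DMSO.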 As to conditions: for Maximum % activity (with co-corrector) / Emax: maximum at any tested concentration, normalized to on-plate positive control; for Emax: read-out: Maximum % activity (without co-corrector). In kind it is cell-based.

Where [1] appears, read: test compound without co-corrector, read-out: EC50 (without co-corrector).
The mark [2] stands for this setting: with co-corrector (2 μM of 3-[(2R,4R)-4-({[1-(2,2-difluoro-1,3-benzodioxol-5-yl)cyclopropyl]carbonyl}amino)-7-methoxy-3,4-dihydro-2H-chromen-2-yl]benzoic acid), read-out: EC50 (with co-corrector).
[3] abbreviates: CSE-HRP, test compound without co-corrector, read-out: EC50 (without co-corrector).
Setting [4] is: CSE-HRP, with co-corrector (2 μM of 3-[(2R,4R)-4-({[1-(2,2-difluoro-1,3-benzodioxol-5-yl)cyclopropyl]carbonyl}amino)-7-methoxy-3,4-dihydro-2H-chromen-2-yl]benzoic acid), read-out: EC50 (with co-corrector).
[5] abbreviates: CSE-HRP, with co-corrector (2 μM).
Where [6] appears, read: test compound without co-corrector.
The mark [7] stands for this setting: with co-corrector (2 μM of 3-[(2R,4R)-4-({[1-(2,2-difluoro-1,3-benzodioxol-5-yl)cyclopropyl]carbonyl}amino)-7-methoxy-3,4-dihydro-2H-chromen-2-yl]benzoic acid).

T1 sequence (P13569 with tags, fused parts or gaps DEL508-508): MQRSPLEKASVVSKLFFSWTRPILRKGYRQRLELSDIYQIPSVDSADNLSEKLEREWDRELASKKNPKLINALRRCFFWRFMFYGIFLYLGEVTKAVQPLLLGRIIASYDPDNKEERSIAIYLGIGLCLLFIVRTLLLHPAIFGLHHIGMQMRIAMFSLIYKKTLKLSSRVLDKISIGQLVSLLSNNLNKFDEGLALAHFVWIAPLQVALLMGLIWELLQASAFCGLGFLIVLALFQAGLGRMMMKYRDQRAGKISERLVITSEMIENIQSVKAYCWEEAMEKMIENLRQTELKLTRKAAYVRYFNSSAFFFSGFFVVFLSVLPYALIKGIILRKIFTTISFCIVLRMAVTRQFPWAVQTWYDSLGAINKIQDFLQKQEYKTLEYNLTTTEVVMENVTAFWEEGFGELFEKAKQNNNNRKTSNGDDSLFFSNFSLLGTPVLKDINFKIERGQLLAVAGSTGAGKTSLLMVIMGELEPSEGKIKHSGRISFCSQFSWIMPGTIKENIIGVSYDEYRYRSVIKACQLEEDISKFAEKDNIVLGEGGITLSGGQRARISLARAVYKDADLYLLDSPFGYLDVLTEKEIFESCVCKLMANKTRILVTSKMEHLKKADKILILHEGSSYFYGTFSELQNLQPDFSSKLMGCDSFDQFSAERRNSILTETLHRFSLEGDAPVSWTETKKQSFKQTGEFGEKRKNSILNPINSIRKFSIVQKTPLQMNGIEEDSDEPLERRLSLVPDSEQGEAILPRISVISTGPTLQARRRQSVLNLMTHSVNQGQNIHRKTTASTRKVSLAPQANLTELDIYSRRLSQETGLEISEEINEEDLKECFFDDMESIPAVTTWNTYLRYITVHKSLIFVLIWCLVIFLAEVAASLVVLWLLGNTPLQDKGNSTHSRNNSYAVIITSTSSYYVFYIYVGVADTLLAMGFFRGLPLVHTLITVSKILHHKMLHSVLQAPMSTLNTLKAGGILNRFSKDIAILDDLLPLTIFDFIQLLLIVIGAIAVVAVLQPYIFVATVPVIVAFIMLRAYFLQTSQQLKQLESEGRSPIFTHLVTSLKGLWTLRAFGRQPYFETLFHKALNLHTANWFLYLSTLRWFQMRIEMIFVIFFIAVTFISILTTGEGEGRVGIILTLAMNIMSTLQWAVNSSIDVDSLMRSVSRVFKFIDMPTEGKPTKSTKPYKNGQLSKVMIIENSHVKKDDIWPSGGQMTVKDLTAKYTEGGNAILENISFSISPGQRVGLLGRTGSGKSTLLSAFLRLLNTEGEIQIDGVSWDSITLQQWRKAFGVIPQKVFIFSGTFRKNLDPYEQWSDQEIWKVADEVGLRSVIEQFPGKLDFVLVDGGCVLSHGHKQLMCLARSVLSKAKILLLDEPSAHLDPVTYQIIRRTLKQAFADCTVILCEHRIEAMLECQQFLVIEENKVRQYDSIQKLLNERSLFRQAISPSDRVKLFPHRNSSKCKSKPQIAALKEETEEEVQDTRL

What is called EC50 is the concentration that produces a half-maximal response. On to `COc1ncc(C2CCC2)cc1CN[C@H]1[C@H](C(C)(C)OC)[C@@H](C(=O)O)N(C(=O)C2CCCCC2)[C@H]1c1ccccc1` [Example I-115], for which the EC50 is 1 to 10 µM under setting [1] and less than 1 µM under setting [2]. Also, the “Maximum % activity (with co-corrector)” value (with co-corrector (2 μM)) is given as “+++ (≥350)”. Also, the Emax (without co-corrector) is greater than 200%.

Consider `COc1ccc(C(C)(C)C)cc1CN[C@H]1[C@H](C(C)(C)C)[C@@H](C(=O)O)N(C(=O)C[C@H]2OCCc3ccccc32)[C@H]1c1ccccc1` [II-178], for which the EC50 is 1 to 10 µM under setting [3] and less than 1 µM under setting [4]. Moreover, under setting [5], the “Maximum % activity (with co-corrector)” value was “+++ (≥350)”. The Emax (CSE-HRP, without co-corrector) is greater than 200%.

As for `COc1ncc(C(F)(F)F)cc1CN[C@H]1[C@H](C(C)(C)OC)[C@@H](C(=O)O)N(C(=O)C2CCCCC2)[C@H]1c1ccccc1` [Example 22, (2S,3S,4S,5S)-1-(cyclohexanecarbonyl)-3-(2-methoxypropan-2-yl)-4-({[2-methoxy-5-(trifluoromethyl)pyridin-3-yl]methyl}amino)-5-phenylpyrrolidine-2-carboxylic acid], the EC50 reads like this: under setting [1], less than 1 µM; under setting [2], less than 1 µM. For the same molecule, under “with co-corrector (2 μM)”, the “Maximum % activity (with co-corrector)” value was “+++ (≥350)”. In addition, where the note is “without co-corrector”, the Emax lay in the range of 100 to 200%.

`COc1cccc(N[C@@H]2[C@@H](C(C)(C)C)[C@H](C(=O)O)N(C(=O)C3CCCCC3)[C@@H]2c2ccccc2)n1` (racemic) [III-8]: the Emax under setting [6] is less than 100%. Moreover, the EC50 is, setting by setting: under setting [1], 1 to 10 µM; under setting [2], 1 to 10 µM. Further, the “Maximum % activity (with co-corrector)” value under setting [7] is reported as “+++ (≥350)”.

Regarding `CO[C@@H](C(=O)N1[C@H](C(=O)O)[C@@H](C(C)(C)C)[C@H](Nc2cc(C(F)(F)F)cc(C)n2)[C@@H]1c1ccccc1)c1ccccc1` [III-78], under setting [6], the Emax was less than 100%. For the same molecule, the EC50 under setting [1] is greater than 10 µM and the EC50 under setting [2] was 1 to 10 µM. Under setting [7], the “Maximum % activity (with co-corrector)” value was “++ (≥150 and <350)”.

`COc1ncc(CC2CCCCC2)cc1CN[C@H]1[C@H](C(C)(C)C)[C@@H](C(=O)O)N(C(=O)C2CCCCC2)[C@H]1c1ccccc1` [Example I-71]: the EC50 is, setting by setting: under setting [1], less than 1 µM; under setting [2], less than 1 µM. For the same molecule, under “with co-corrector (2 μM)”, the “Maximum % activity (with co-corrector)” value is recorded as “+++ (≥350)”. For the same molecule, under “without co-corrector”, the Emax fell in the range of 100 to 200%.

Consider `COc1ccc(C(C)(C)C)cc1CN[C@H]1[C@H](C(C)(C)C)[C@@H](C(=O)O)N(C(=O)C2CCCCO2)[C@H]1c1cccnc1OC(F)F` (single isomer, unassigned) [II-490], for which, under setting [1], the EC50 lay within 1 to 10 µM. For the same molecule, the “Maximum % activity (with co-corrector)” value under setting [7] was “+++ (≥350)”.

`COc1ccc(C(F)(F)F)cc1CN[C@H]1[C@H](C(C)(C)OC)[C@@H](C(=O)O)N(C(=O)C2CCCCC2)[C@H]1c1cccnc1N(C)C` [II-437]: the Emax under setting [6] is greater than 200%. Moreover, the EC50 lay within 1 to 10 µM under setting [1] and 1 to 10 µM under setting [2]. Further, the “Maximum % activity (with co-corrector)” value under setting [7] is “+++ (≥350)”.

For `COc1ccc(C2CC3CCC2C3)cc1CN[C@H]1[C@H](C(C)(C)C)[C@@H](C(=O)O)N(C(=O)C2CCCCC2)[C@H]1c1ccccc1` (some centres unmarked) [II-194], the EC50 is, setting by setting: under setting [3], less than 1 µM; under setting [4], less than 1 µM. In addition, under setting [5], the “Maximum % activity (with co-corrector)” value is “+++ (≥350)”. Further, the Emax (CSE-HRP, without co-corrector) was greater than 200%.

In the case of `COc1ccc(C2(C)CCC2)cc1CN[C@H]1[C@H](C(C)(C)C)[C@@H](C(=O)O)N(C(=O)[C@@H]2CCCO2)[C@H]1c1ccccc1C(C)C` [II-593], under setting [6], the Emax was greater than 200%. The EC50 is, setting by setting: under setting [1], 1 to 10 µM; under setting [2], less than 1 µM. The “Maximum % activity (with co-corrector)” value under setting [7] is on record as “+++ (≥350)”.

As for `COc1ccc(C23CC(C2)C3)cc1CN[C@H]1[C@H](C(C)(C)C)[C@@H](C(=O)O)N(C(=O)[C@@H]2CCCC(F)(F)C2)[C@H]1c1ccccc1` [Example 67, (2S,3S,4S,5S)-4-({[5-(bicyclo[1.1.1]pentan-1-yl)-2-methoxyphenyl]methyl}amino)-3-tert-butyl-1-[(1R)-3,3-difluorocyclohexane-1-carbonyl]-5-phenylpyrrolidine-2-carboxylic acid], the EC50 is, setting by setting: under setting [1], less than 1 µM; under setting [2], less than 1 µM. The “Maximum % activity (with co-corrector)” value (with co-corrector (2 μM)) is listed as “+++ (≥350)”. The Emax (without co-corrector) was greater than 200%.

As to `COc1ncc(C2CCC2)cc1CN[C@H]1[C@H](C(C)(C)C)[C@@H](C(=O)O)N(C(=O)OC(C)C)[C@H]1c1cccnc1OC(C)C` [Example 87, (2S,3S,4S,5S)-3-tert-butyl-4-{[(5-cyclobutyl-2-methoxypyridin-3-yl)methyl]amino}-1-{[(propan-2-yl)oxy]carbonyl}-5-{2-[(propan-2-yl)oxy]pyridin-3-yl}pyrrolidine-2-carboxylic acid], the EC50 by setting is: under setting [1], 1 to 10 µM; under setting [2], 1 to 10 µM. Moreover, the “Maximum % activity (with co-corrector)” value (with co-corrector (2 μM)) is “+++ (≥350)”. For the same molecule, the Emax (without co-corrector) was greater than 200%.

For `CC(C)(C)[C@H]1[C@H](NCc2cc(Br)ccc2OC(F)F)[C@H](c2ccccc2)N(C(=O)C2CCCCC2)[C@@H]1C(=O)O` [III-131], the Emax under setting [6] was less than 100%. For the same molecule, the EC50 was less than 1 µM under setting [1] and 1 to 10 µM under setting [2]. In addition, the “Maximum % activity (with co-corrector)” value (with co-corrector (2 μM)) is recorded as “+++ (≥350)”.

Take `COc1ccc(C23CC(C2)C3)cc1CN[C@H]1[C@H](C(C)(C)C)[C@@H](C(=O)O)N(C(=O)C2CCCCC2)[C@H]1c1cccnc1OC(F)F` [Example I-228]: the EC50 under setting [1] lay within 1 to 10 µM and the EC50 under setting [2] fell in the range of 1 to 10 µM. Further, under “with co-corrector (2 μM)”, the “Maximum % activity (with co-corrector)” value is recorded as “+++ (≥350)”. Moreover, the Emax (without co-corrector) was in the range of 100 to 200%.

With `COc1ccc(Cl)cc1CN[C@H]1[C@H](C(C)(C)C)[C@@H](C(=O)O)N(C(=O)C2CCCO2)[C@H]1c1ccccc1` (mixture of isomers) [II-61], the EC50 reads like this: under setting [3], 1 to 10 µM; under setting [4], 1 to 10 µM. For the same molecule, the “Maximum % activity (with co-corrector)” value under setting [5] is on record as “+++ (≥350)”. The Emax (CSE-HRP, without co-corrector) was in the range of 100 to 200%.

With `COc1cc(Cl)cnc1N[C@@H]1[C@@H](C(C)(C)OC)[C@H](C(=O)O)N(C(=O)C2CCCCC2)[C@@H]1c1ccccc1` (racemic) [III-111], the Emax under setting [6] was less than 100%. Moreover, the EC50 is, setting by setting: under setting [1], 1 to 10 µM; under setting [2], 1 to 10 µM. For the same molecule, the “Maximum % activity (with co-corrector)” value (with co-corrector (2 μM)) is “++ (≥150 and <350)”.

For `COc1ccc(C(C)(C)C)cc1CN[C@H]1[C@H](C(C)(C)C)[C@@H](C(=O)O)N(C(=O)c2cccnc2)[C@H]1c1ccccc1` [Example I-64], the EC50 under setting [1] fell in the range of 1 to 10 µM and the EC50 under setting [2] fell in the range of 1 to 10 µM. Besides, the “Maximum % activity (with co-corrector)” value (with co-corrector (2 μM)) was “+++ (≥350)”. Besides, the Emax (without co-corrector) is less than 100%.

Turning to `COc1cc(Cl)ccc1CN[C@@H]1[C@@H](C)[C@H](C(=O)O)N(C(=O)N(C(C)C)C(C)C)[C@@H]1c1ccccc1` (racemic) [III-39], the Emax under setting [6] is less than 100%. Further, the EC50 reads like this: under setting [1], greater than 10 µM; under setting [2], 1 to 10 µM. Also, the “Maximum % activity (with co-corrector)” value under setting [7] was “++ (≥150 and <350)”.

`COc1ncc(-c2ccccc2)cc1CN[C@H]1[C@H](C(C)(C)C)[C@@H](C(=O)O)N(C(=O)C2CCCCC2)[C@H]1c1ccccc1F` [II-423]: the Emax under setting [6] lay in the range of 100 to 200%. Besides, the EC50 under setting [1] is less than 1 µM and the EC50 under setting [2] is less than 1 µM. Also, under setting [7], the “Maximum % activity (with co-corrector)” value is “+++ (≥350)”.

With `CC(C)(C)[C@@H]1[C@@H](Nc2cc(C#N)ccn2)[C@@H](c2ccccc2)N(C(=O)C2CCCCC2)[C@H]1C(=O)O` (racemic) [III-42], the Emax under setting [6] is less than 100%. Also, the EC50 fell in the range of 1 to 10 µM under setting [1] and 1 to 10 µM under setting [2]. Further, under setting [7], the “Maximum % activity (with co-corrector)” value was “++ (≥150 and <350)”.

On to `COc1ccc(C(C)(C)C)cc1CN[C@H]1[C@H](C(C)(C)C)[C@@H](C(=O)O)N(C(=O)OCC(C)C)[C@H]1c1ccccc1` [II-264], for which the EC50 by setting is: under setting [3], 1 to 10 µM; under setting [4], 1 to 10 µM. Further, the “Maximum % activity (with co-corrector)” value under setting [5] is listed as “+++ (≥350)”. Further, the Emax (CSE-HRP, without co-corrector) is greater than 200%.

For `COc1ccc(C(C)(C)C)cc1CN[C@H]1[C@H](C(C)(C)C)[C@@H](C(=O)O)N(C(=O)C2CCC(C)CC2)[C@H]1c1ccccc1` (some centres unmarked) [III-174], the Emax under setting [6] is greater than 200%. Also, the EC50 under setting [1] was less than 1 µM and the EC50 under setting [2] is less than 1 µM. In addition, the “Maximum % activity (with co-corrector)” value (with co-corrector (2 μM)) is “+++ (≥350)”.

In the case of `CC(C)Oc1ccc(Cl)cc1CN[C@H]1[C@H](C(C)(C)C)[C@@H](C(=O)O)N(C(=O)C2CCCCC2)[C@H]1c1ccccc1` [III-124], the Emax under setting [6] was less than 100%. The EC50 runs as follows: under setting [1], 1 to 10 µM; under setting [2], less than 1 µM. Further, where the note is “with co-corrector (2 μM)”, the “Maximum % activity (with co-corrector)” value is on record as “+++ (≥350)”.

With `COc1cc(C(F)(F)F)ccc1CN[C@@H]1[C@@H](C(C)(C)OC)[C@H](C(=O)O)N(C(=O)C2CCCCC2)[C@@H]1c1ccccc1` (racemic) [II-88], the concentration for a half-maximal effect (EC50) under setting [3] fell in the range of 1 to 10 µM and the EC50 under setting [4] lay in the range of 1 to 10 µM. Further, the “Maximum % activity (with co-corrector)” value under setting [5] is “+++ (≥350)”. For the setting “CSE-HRP, without co-corrector”, the Emax lay in the range of 100 to 200%.

In the case of `COc1ncc(C2CCC2)cc1CN[C@H]1[C@H](C(C)(C)C)[C@@H](C(=O)O)N(C(=O)[C@@H]2CCCCO2)[C@H]1c1ccccc1F` [II-531], the Emax under setting [6] was 100 to 200%. In addition, the EC50 lay in the range of 1 to 10 µM under setting [1] and 1 to 10 µM under setting [2]. The “Maximum % activity (with co-corrector)” value under setting [7] is on record as “+++ (≥350)”.
